Measured values from ChEMBL document CHEMBL1138210, “Discovery of potent, orally-active, and muscle-selective androgen receptor modulators based on an N-aryl-hydroxybicyclohydantoin scaffold” (J Med Chem, 2006).

Key:
Androgen receptor [1] = biological target: T1, Androgen receptor (Homo sapiens, UniProt P10275); assay: biochemical
T1 sequence (P10275 whole entry): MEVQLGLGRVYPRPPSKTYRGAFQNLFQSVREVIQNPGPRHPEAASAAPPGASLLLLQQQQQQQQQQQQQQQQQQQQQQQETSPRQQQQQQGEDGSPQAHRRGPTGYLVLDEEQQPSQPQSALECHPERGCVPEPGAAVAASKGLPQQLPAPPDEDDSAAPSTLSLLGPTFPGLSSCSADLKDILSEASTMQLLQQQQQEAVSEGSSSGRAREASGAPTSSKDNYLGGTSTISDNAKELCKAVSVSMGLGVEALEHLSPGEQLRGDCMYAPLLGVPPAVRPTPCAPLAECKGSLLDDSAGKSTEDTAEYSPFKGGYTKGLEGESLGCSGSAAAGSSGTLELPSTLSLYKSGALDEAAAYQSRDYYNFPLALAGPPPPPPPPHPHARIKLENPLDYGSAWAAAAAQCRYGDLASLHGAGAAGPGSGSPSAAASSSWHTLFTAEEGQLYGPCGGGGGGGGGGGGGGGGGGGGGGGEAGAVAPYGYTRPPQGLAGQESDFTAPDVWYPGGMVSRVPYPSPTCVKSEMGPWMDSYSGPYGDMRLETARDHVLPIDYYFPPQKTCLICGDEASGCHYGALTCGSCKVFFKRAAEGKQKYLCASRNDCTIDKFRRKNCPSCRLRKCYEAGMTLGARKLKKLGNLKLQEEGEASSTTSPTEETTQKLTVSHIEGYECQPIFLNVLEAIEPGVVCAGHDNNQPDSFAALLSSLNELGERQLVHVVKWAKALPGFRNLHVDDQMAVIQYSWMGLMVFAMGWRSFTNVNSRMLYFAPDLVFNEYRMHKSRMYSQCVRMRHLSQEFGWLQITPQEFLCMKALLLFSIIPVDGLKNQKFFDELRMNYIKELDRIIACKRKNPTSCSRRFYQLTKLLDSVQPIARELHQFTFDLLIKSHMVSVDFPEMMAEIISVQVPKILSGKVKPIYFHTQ
Description: Displacement of [3H]DHT from human AR in MDA453 cells

Androgen receptor [2] = biological target: T2, Androgen receptor (Rattus norvegicus, UniProt P15207)
T2 sequence (P15207 whole entry): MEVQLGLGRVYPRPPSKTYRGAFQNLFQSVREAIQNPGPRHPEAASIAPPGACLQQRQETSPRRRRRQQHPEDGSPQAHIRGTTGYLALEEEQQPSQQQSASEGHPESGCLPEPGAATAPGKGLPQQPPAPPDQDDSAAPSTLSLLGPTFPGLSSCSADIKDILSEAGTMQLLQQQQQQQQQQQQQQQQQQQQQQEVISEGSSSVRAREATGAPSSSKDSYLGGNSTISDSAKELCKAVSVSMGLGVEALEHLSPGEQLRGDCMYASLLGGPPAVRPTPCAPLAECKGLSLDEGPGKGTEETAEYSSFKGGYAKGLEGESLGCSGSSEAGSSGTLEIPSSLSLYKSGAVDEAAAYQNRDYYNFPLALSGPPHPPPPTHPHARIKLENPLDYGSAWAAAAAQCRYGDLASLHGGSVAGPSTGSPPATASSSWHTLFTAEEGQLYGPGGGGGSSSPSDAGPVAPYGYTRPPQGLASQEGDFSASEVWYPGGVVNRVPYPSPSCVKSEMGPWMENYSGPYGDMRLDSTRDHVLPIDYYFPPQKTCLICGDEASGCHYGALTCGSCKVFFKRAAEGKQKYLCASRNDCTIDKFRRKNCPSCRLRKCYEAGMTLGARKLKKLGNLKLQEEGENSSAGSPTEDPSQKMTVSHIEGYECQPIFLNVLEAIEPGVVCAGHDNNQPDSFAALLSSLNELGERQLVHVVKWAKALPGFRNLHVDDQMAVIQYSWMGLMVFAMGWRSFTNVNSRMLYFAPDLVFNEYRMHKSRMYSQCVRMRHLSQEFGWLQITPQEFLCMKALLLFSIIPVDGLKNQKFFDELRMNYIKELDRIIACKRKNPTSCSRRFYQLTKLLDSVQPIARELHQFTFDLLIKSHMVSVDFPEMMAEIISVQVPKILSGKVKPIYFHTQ
Description: Agonist activity at rat AR transfected in mouse C2C12 cells by luciferase reporter transactivation assay

Rattus norvegicus [3] = assay: Stimulation of prostate growth in sc dosed castrated Sprague-Dawley rat; type: functional; conditions: Prostate gland
Rattus norvegicus [4] = assay: Inhibition of LH secretion in sc dosed castrated Sprague-Dawley rat; type: functional, organism-based
Rattus norvegicus [5] = assay: Stimulation of levator ani muscle growth in sc dosed castrated Sprague-Dawley rat; type: functional
Rattus norvegicus [6] = assay: Selectivity for stimulation of levetor ani muscle over suppression of LH secretion in sc dosed castrated Sprague-Dawley rat; type: functional, Muscle tissue
Rattus norvegicus [7] = assay: Selectivity for stimulation of levator ani muscle over prostate in sc dosed castrated Sprague-Dawley rat; type: functional
Rattus norvegicus [8] = assay: Stimulation of levator ani muscle growth in orally dosed castrated Sprague-Dawley rat; type: functional; conditions: po
Rattus norvegicus [9] = assay: Stimulation of prostate growth in orally dosed castrated Sprague-Dawley rat; type: functional; conditions: Prostate gland, po
Rattus norvegicus [10] = assay: Inhibition of LH secretion in orally dosed castrated Sprague-Dawley rat; type: functional; conditions: po
Androgen receptor [11] = biological target: T2, Androgen receptor; assay: Antagonist activity against rat AR transfected in mouse C2C12 cells by luciferase reporter transactivation assay relative to DHT; type: functional, cell-based

Structure (SMILES) | Ki (Androgen receptor [1]) | EC50 (Androgen receptor [2]) | other results
O=C1C2C(O)CCN2C(=O)N1c1ccc([N+](=O)[O-])c2ccccc12 (racemic) | 3.5 nM | 4.4 nM | –
O=C1[C@@H]2[C@H](O)CCN2C(=O)N1c1ccc([N+](=O)[O-])c2ccccc12 | 2.1 nM | 1.5 nM | –
O=C1[C@@H]2[C@H](O)CCN2C(=O)N1c1ccc([N+](=O)[O-])c2ccccc12 (single isomer, unassigned) | 1.5 nM | 281 nM | –
O=C1[C@H]2C[C@@H](O)CN2C(=O)N1c1ccc([N+](=O)[O-])c2ccccc12 | 1.5 nM | 320 nM | –
CCC(=O)O[C@H]1CC[C@H]2[C@@H]3CCC4=CC(=O)CC[C@]4(C)[C@H]3CC[C@]12C [TESTOSTERONE PROPIONATE] | – | – | ED50 (Rattus norvegicus [3]): 0.42 mg/kg; EC50 (Rattus norvegicus [4]): 0.26 mg/kg; ED50 (Rattus norvegicus [5]): 0.21 mg/kg; Ratio ED50 (Rattus norvegicus [6]): 1.2; Ratio ED50 (Rattus norvegicus [7]): 2
N#Cc1ccc(N2C(=O)[C@@H]3[C@H](O)CCN3C2=O)c2ccccc12 | – | 2.3 nM | ED50 (Rattus norvegicus [8]): 2 mg/kg; ED50 (Rattus norvegicus [9]): > 100 mg/kg; ED50 (Rattus norvegicus [10]): 60 mg/kg
O=C1[C@H]2[C@@H]3CC[C@@H](C3)N2C(=O)N1c1ccc([N+](=O)[O-])c2ccccc12 | 1 nM | 385 nM | –
O=C1[C@H]2C[C@H](O)CN2C(=O)N1c1ccc([N+](=O)[O-])c2ccccc12 | 4.3 nM | 265 nM | –
N#Cc1ccc(N2C(=O)[C@@H]3[C@H](O)CCN3C2=O)c2ccccc12 (single isomer, unassigned) | – | 1300 nM | IC50 (Androgen receptor [11]): 60 nM
O=C1C2CCCN2C(=O)N1c1ccc([N+](=O)[O-])c2ccccc12 (centres undefined) | 1.7 nM | 270 nM | –
N#Cc1ccc(N2C(=O)C3C(O)CCN3C2=O)c2ccccc12 (racemic) | – | 6.3 nM | –
N#Cc1ccc(N2C(=O)[C@H]3[C@@H]4CC[C@@H](C4)N3C2=O)c2ccccc12 | 24 nM | > 1000 nM | IC50 (Androgen receptor [11]): 260 nM
